“And” between values parts separate entries of the source, which are not always exact repeats. Equal entries are not always repeated.
Test system: transgenic T2 Arabidopsis plants
Assay: Greenhouse spray of transgenic T2 Arabidopsis plants, herbicide injury 0 to 100% phytotox rating (Table A)
Format: in vivo
Settings: 14 days after treatment
Method: Additionally, transgenic T2 Arabidopsis plants are tested for improved tolerance to herbicides in greenhouse studies with the following herbicides: methyl 2-[2-chloro-5-[3-chloro-5-(trifluoromethyl)-2-pyridyl]-4-fluoro-phenoxy]-2-methoxy-acetate, and photosynthesis inhibitor diuron as negative control.
Table A: Transgenic T2 Arabidopsis plants, four weeks old, were sprayed in the greenhouse with the indicated amount of compound+1% (v/v) MSO. Herbicide injury was evaluated 14 days after treatment with a 0 to 100% phytotox rating scale where 0 is no injury relative to an unsprayed wild type check and 100% is completely dead.

Question: With `COC(=O)C(OC)Oc1cc(-c2ncc(C(F)(F)F)cc2Cl)c(F)cc1Cl` (stereo not drawn) [methyl 2-[2-chloro-5-[3-chloro-5-(trifluoromethyl)-2-pyridyl]-4-fluoro-phenoxy]-2-methoxy-acetate] as the compound, how does the “Herbicide injury, 0 to 100% phytotox rating” value (construct ALOMY_PPO2 F438I, 50 g ai/ha + 1% (v/v) MSO) read?
Answer: 48%

Question: And the “Herbicide injury, 0 to 100% phytotox rating” value (construct ALOMY_PPO2 F438I, 100 g ai/ha + 1% (v/v) MSO)?
Answer: 64%

Question: And the “Herbicide injury, 0 to 100% phytotox rating” value (construct ALOMY_PPO2 F438I, 200 g ai/ha + 1% (v/v) MSO)?
Answer: 79%

Question: And the “Herbicide injury, 0 to 100% phytotox rating” value (construct ALOMY_PPO2 F438M, 50 g ai/ha + 1% (v/v) MSO)?
Answer: 30%

Question: What about the “Herbicide injury, 0 to 100% phytotox rating” value (construct ALOMY_PPO2 F438M, 100 g ai/ha + 1% (v/v) MSO) of the same compound?
Answer: 43%

Question: And the “Herbicide injury, 0 to 100% phytotox rating” value (construct ALOMY_PPO2 F438M, 200 g ai/ha + 1% (v/v) MSO)?
Answer: 69%

Question: And the “Herbicide injury, 0 to 100% phytotox rating” value (construct ALOMY_PPO2 F438V, 50 g ai/ha + 1% (v/v) MSO)?
Answer: 36%

Question: And the “Herbicide injury, 0 to 100% phytotox rating” value (construct ALOMY_PPO2 F438V, 100 g ai/ha + 1% (v/v) MSO)?
Answer: 55%

Question: What about the “Herbicide injury, 0 to 100% phytotox rating” value (construct ALOMY_PPO2 F438V, 200 g ai/ha + 1% (v/v) MSO) of the same compound?
Answer: 69%

Question: What about the “Herbicide injury, 0 to 100% phytotox rating” value (construct ALOMY_PPO2 L415A_F438M, 50 g ai/ha + 1% (v/v) MSO) of the same compound?
Answer: 23%

Question: What about the “Herbicide injury, 0 to 100% phytotox rating” value (construct ALOMY_PPO2 L415A_F438M, 100 g ai/ha + 1% (v/v) MSO) of the same compound?
Answer: 28%

Question: And the “Herbicide injury, 0 to 100% phytotox rating” value (construct ALOMY_PPO2 L415A_F438M, 200 g ai/ha + 1% (v/v) MSO)?
Answer: 39%

Question: What about the “Herbicide injury, 0 to 100% phytotox rating” value (construct ALOMY_PPO2 L415E_F438M, 50 g ai/ha + 1% (v/v) MSO) of the same compound?
Answer: 15%

Question: What about the “Herbicide injury, 0 to 100% phytotox rating” value (construct ALOMY_PPO2 L415E_F438M, 100 g ai/ha + 1% (v/v) MSO) of the same compound?
Answer: 29%

Question: What about the “Herbicide injury, 0 to 100% phytotox rating” value (construct ALOMY_PPO2 L415E_F438M, 200 g ai/ha + 1% (v/v) MSO) of the same compound?
Answer: 43%

Question: What about the “Herbicide injury, 0 to 100% phytotox rating” value (construct ALOMY_PPO2 L415G_F438M (two table lines), 50 g ai/ha + 1% (v/v) MSO) of the same compound?
Answer: 36% and 26%

Question: And the “Herbicide injury, 0 to 100% phytotox rating” value (construct ALOMY_PPO2 L415G_F438M (two table lines), 100 g ai/ha + 1% (v/v) MSO)?
Answer: 46% and 34%

Question: And the “Herbicide injury, 0 to 100% phytotox rating” value (construct ALOMY_PPO2 L415G_F438M (two table lines), 200 g ai/ha + 1% (v/v) MSO)?
Answer: 59% and 46%

Question: What about the “Herbicide injury, 0 to 100% phytotox rating” value (construct ALOMY_PPO2 L415Q_F438M, 50 g ai/ha + 1% (v/v) MSO) of the same compound?
Answer: 18%

Question: What about the “Herbicide injury, 0 to 100% phytotox rating” value (construct ALOMY_PPO2 L415Q_F438M, 100 g ai/ha + 1% (v/v) MSO) of the same compound?
Answer: 23%

Question: And the “Herbicide injury, 0 to 100% phytotox rating” value (construct ALOMY_PPO2 L415Q_F438M, 200 g ai/ha + 1% (v/v) MSO)?
Answer: 41%

Question: And the “Herbicide injury, 0 to 100% phytotox rating” value (construct ALOMY_PPO2 R137L_F438L, 50 g ai/ha + 1% (v/v) MSO)?
Answer: 55%

Question: And the “Herbicide injury, 0 to 100% phytotox rating” value (construct ALOMY_PPO2 R137L_F438L, 100 g ai/ha + 1% (v/v) MSO)?
Answer: 59%

Question: What about the “Herbicide injury, 0 to 100% phytotox rating” value (construct ALOMY_PPO2 R137L_F438L, 200 g ai/ha + 1% (v/v) MSO) of the same compound?
Answer: 71%

Question: What about the “Herbicide injury, 0 to 100% phytotox rating” value (construct ALOMY_PPO2 R137L_F438M, 50 g ai/ha + 1% (v/v) MSO) of the same compound?
Answer: 50%

Question: And the “Herbicide injury, 0 to 100% phytotox rating” value (construct ALOMY_PPO2 R137L_F438M, 100 g ai/ha + 1% (v/v) MSO)?
Answer: 68%

Question: What about the “Herbicide injury, 0 to 100% phytotox rating” value (construct ALOMY_PPO2 R137L_F438M, 200 g ai/ha + 1% (v/v) MSO) of the same compound?
Answer: 70%

Question: What about the “Herbicide injury, 0 to 100% phytotox rating” value (construct ALOMY_PPO2 R137L_F438V, 50 g ai/ha + 1% (v/v) MSO) of the same compound?
Answer: 39%

Question: And the “Herbicide injury, 0 to 100% phytotox rating” value (construct ALOMY_PPO2 R137L_F438V, 100 g ai/ha + 1% (v/v) MSO)?
Answer: 58%

Question: What about the “Herbicide injury, 0 to 100% phytotox rating” value (construct ALOMY_PPO2 R137L_F438V, 200 g ai/ha + 1% (v/v) MSO) of the same compound?
Answer: 65%

Question: And the “Herbicide injury, 0 to 100% phytotox rating” value (construct AMATU_PPO2 L397C_F420M, 50 g ai/ha + 1% (v/v) MSO)?
Answer: 58%

Question: And the “Herbicide injury, 0 to 100% phytotox rating” value (construct AMATU_PPO2 L397C_F420M, 100 g ai/ha + 1% (v/v) MSO)?
Answer: 63%

Question: And the “Herbicide injury, 0 to 100% phytotox rating” value (construct AMATU_PPO2 L397C_F420M, 200 g ai/ha + 1% (v/v) MSO)?
Answer: 71%

Question: What about the “Herbicide injury, 0 to 100% phytotox rating” value (construct AMATU_PPO2 L397D_F420V, 50 g ai/ha + 1% (v/v) MSO) of the same compound?
Answer: 49%

Question: And the “Herbicide injury, 0 to 100% phytotox rating” value (construct AMATU_PPO2 L397D_F420V, 100 g ai/ha + 1% (v/v) MSO)?
Answer: 59%

Question: What about the “Herbicide injury, 0 to 100% phytotox rating” value (construct AMATU_PPO2 L397D_F420V, 150 g ai/ha + 1% (v/v) MSO) of the same compound?
Answer: 67%

Question: What about the “Herbicide injury, 0 to 100% phytotox rating” value (construct AMATU_PPO2 L397E_F420M, 50 g ai/ha + 1% (v/v) MSO) of the same compound?
Answer: 59%

Question: What about the “Herbicide injury, 0 to 100% phytotox rating” value (construct AMATU_PPO2 L397E_F420M, 100 g ai/ha + 1% (v/v) MSO) of the same compound?
Answer: 68%

Question: What about the “Herbicide injury, 0 to 100% phytotox rating” value (construct AMATU_PPO2 L397E_F420M, 200 g ai/ha + 1% (v/v) MSO) of the same compound?
Answer: 79%

Question: And the “Herbicide injury, 0 to 100% phytotox rating” value (construct AMATU_PPO2 L397E_F420V, 50 g ai/ha + 1% (v/v) MSO)?
Answer: 60%

Question: What about the “Herbicide injury, 0 to 100% phytotox rating” value (construct AMATU_PPO2 L397E_F420V, 100 g ai/ha + 1% (v/v) MSO) of the same compound?
Answer: 76%

Question: And the “Herbicide injury, 0 to 100% phytotox rating” value (construct AMATU_PPO2 L397E_F420V, 200 g ai/ha + 1% (v/v) MSO)?
Answer: 85%

Question: What about the “Herbicide injury, 0 to 100% phytotox rating” value (construct AMATU_PPO2 L397G_F420M, 50 g ai/ha + 1% (v/v) MSO) of the same compound?
Answer: 40%

Question: What about the “Herbicide injury, 0 to 100% phytotox rating” value (construct AMATU_PPO2 L397G_F420M, 100 g ai/ha + 1% (v/v) MSO) of the same compound?
Answer: 56%

Question: What about the “Herbicide injury, 0 to 100% phytotox rating” value (construct AMATU_PPO2 L397G_F420M, 200 g ai/ha + 1% (v/v) MSO) of the same compound?
Answer: 66%
